Measured values: PMC10386613 (Molecules, 2023)
Several values for one entry are separate records, joined by “and”; a condition that tells them apart may be missing. Identical values can stand only once. Like-named read-outs stand apart in the source and are kept apart here.

Assays:
[1] = biological target: T1, neuraminidase from Clostridium perfringens (Clostridium perfringens, UniProt A0A0H2YQR1); assay type: biochemical; settings: for Ki: Dixon plot, read-out: Ki (inhibition constant); for Inhibition Mode: Lineweaver–Burk plot; for IC50: fluorescent substrate 100 μM, 0.2 unit/mL enzyme, 50 mM sodium acetate buffer, read-out: IC50 against bacterial neuraminidase (BNA)
[2] = biological target: T1, neuraminidase from Clostridium perfringens; assay type: binding; settings: for KSV (Stern–Volmer quenching constant): excitation 290 nm, emission near 360 nm
[3] = fluorescence quenching, without substrate

T1 sequence (A0A0H2YQR1 42-694 limits assumed): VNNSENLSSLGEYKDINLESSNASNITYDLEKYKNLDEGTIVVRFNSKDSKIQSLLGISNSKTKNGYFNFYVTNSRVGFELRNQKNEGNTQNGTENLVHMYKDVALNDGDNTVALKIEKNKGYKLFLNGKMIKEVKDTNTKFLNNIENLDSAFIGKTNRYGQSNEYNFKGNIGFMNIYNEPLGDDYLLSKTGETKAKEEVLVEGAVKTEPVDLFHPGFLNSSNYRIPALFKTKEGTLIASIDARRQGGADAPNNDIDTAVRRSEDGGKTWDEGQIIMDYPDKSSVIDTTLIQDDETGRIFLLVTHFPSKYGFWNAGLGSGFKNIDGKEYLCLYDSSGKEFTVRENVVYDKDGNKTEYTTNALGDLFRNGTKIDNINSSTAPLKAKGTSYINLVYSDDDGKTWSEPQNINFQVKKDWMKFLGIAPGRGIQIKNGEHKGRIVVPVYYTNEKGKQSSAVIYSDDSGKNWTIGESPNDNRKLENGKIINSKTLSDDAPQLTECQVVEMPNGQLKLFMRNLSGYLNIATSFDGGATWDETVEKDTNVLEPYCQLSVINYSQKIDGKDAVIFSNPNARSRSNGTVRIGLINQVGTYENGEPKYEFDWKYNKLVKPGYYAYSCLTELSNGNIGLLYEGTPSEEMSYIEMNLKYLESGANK

3,4′-O-dimethyl quercetin [Compound 2]
Ki [1]: 24.7 ± 0.5 µM
Inhibition Mode [1]: Noncompetitive
IC50 [1]: 24.3 µM and 25.8 µM
KSV (Stern–Volmer quenching constant) ([2]; without substrate): 1440 L/mol
KA (binding constant) [2, 3]: 39940 L/mol
n (number of binding sites) [2, 3]: 1.1063

3,7-O-dimethyl quercetin [Compound 3]
Ki [1]: 22.4 ± 0.9 µM
Inhibition Mode [1]: Noncompetitive
IC50 [1]: 25.8 µM and 24.3 µM
KSV (Stern–Volmer quenching constant) ([2]; without substrate): 1530 L/mol
KA (binding constant) [2, 3]: 38180 L/mol
n (number of binding sites) [2, 3]: 1.0959

COc1c(-c2ccc(O)c(O)c2)oc2cc(O)cc(O)c2c1=O [Compound 1, 3-O-methyl quercetin]
Inhibition Mode [1]: Noncompetitive
KA (binding constant) [2]: 0.05105
KSV (Stern–Volmer quenching constant) ([2]; without substrate): 2520 L/mol
n (number of binding sites) [2, 3]: 1.2106

COc1cc(O)c2c(=O)c(OC)c(-c3ccc(OC)c(O)c3)oc2c1 [Compound 4, 3,7,4′-O-trimethyl quercetin]
Inhibition Mode [1]: Noncompetitive
KA (binding constant) [2]: 0.00021
KSV (Stern–Volmer quenching constant) ([2]; without substrate): 360 L/mol
n (number of binding sites) [2, 3]: 0.7071
